Laboratory results from patent publication US12667608B2 (priority 2020, dated 2026).
Converted amounts (≈) assume the structure as drawn.

What was measured:
Assay in all cases: microbe, parasite or virus in culture
Format in all cases: cell-based
[1] = system: M. bovis BCG; details: Mycobacterium tuberculosis variant bovis BCG, 672 h
[2] = system: Recombinant drug-resistant BCG Strain; details: Mycobacterium tuberculosis variant bovis BCG, 672 h
[3] = system: Mtb H37Rv; details: Mycobacterium tuberculosis, 672 h

| SMILES | MIC [1] [µg/mL] | MIC [2] [µg/mL] | MIC [3] [µg/mL] |
| --- | --- | --- | --- |
| CC[C@@H](CO)NCCN[C@@H](CC)CO [EMB, ethambutol] | 0.5 (≈ 2.45 µM) | 5 (≈ 24.5 µM) | 0.5 (≈ 2.45 µM) |
| O=[N+]([O-])c1cn2c(n1)OC[C@@H](OCc1ccc(OC(F)(F)F)cc1)C2 [PA-824, Pretomanid] | 0.25 (≈ 0.696 µM) | 0.25 (≈ 0.696 µM) | 0.06 to 0.125 (≈ 0.167 to 0.348 µM) |
| NNC(=O)c1ccncc1 [INH, isoniazid] | 0.1 (≈ 0.729 µM) | 0.06 (≈ 0.438 µM) | 0.03 to 0.06 (≈ 0.219 to 0.438 µM) |
| CCCc1cc(C(N)=S)ccn1 [PRO, prothionamide] | 0.25 (≈ 1.39 µM) | 64 (≈ 355 µM) | 0.5 (≈ 2.77 µM) |
| COc1c(N2C[C@@H]3CCCN[C@@H]3C2)c(F)cc2c(=O)c(C(=O)O)cn(C3CC3)c12 [MFX, moxifloxacin] | 0.5 (≈ 1.25 µM) | 4 (≈ 9.96 µM) | 0.25 to 0.5 (≈ 0.623 to 1.25 µM) |
| CC(C)/N=c1\cc2n(-c3ccc(Cl)cc3)c3ccccc3nc-2cc1Nc1ccc(Cl)cc1 [CLA, clofazimine] | 0.25 (≈ 0.528 µM) | 0.5 (≈ 1.06 µM) | 8 (≈ 16.9 µM) |
| NCC[C@H](O)C(=O)N[C@@H]1C[C@H](N)[C@@H](O[C@H]2O[C@H](CN)[C@@H](O)[C@H](O)[C@H]2O)[C@H](O)[C@H]1O[C@H]1O[C@H](CO)[C@@H](O)[C@H](N)[C@H]1O [AMK, amikacin] | 0.5 (≈ 0.854 µM) | 5 (≈ 8.54 µM) | 0.5 to 1 (≈ 0.854 to 1.71 µM) |
| Nc1ccc(C(=O)O)c(O)c1 [PAS, para-aminosalicylic acid] | 0.25 (≈ 1.63 µM) | 0.25 (≈ 1.63 µM) | 0.3 to 1 (≈ 1.96 to 6.53 µM) |
| COc1nc2ccc(Br)cc2cc1[C@@H](c1ccccc1)[C@@](O)(CCN(C)C)c1cccc2ccccc12 [TMC 207, bedaquiline] | 0.03 (≈ 0.054 µM) | 0.03 (≈ 0.054 µM) | 0.03 to 0.12 (≈ 0.054 to 0.216 µM) |
| [H]/N=C(/N)N[C@H]1[C@H](O)[C@@H](O)[C@H](O[C@@H]2O[C@@H](C)[C@](O)(C=O)[C@H]2O[C@@H]2O[C@@H](CO)[C@H](O)[C@@H](O)[C@@H]2NC)[C@@H](N/C(N)=N\[H])[C@@H]1O [STR, streptomycin] | 0.25 (≈ 0.43 µM) | 64 (≈ 110 µM) | 1 (≈ 1.72 µM) |
| C[C@H]1COc2c(N3CCN(C)CC3)c(F)cc3c(=O)c(C(=O)O)cn1c23 [LFX, levofloxacin] | 0.5 (≈ 1.38 µM) | 4 (≈ 11.1 µM) | 0.5 (≈ 1.38 µM) |
| CO[C@H]1/C=C/O[C@@]2(C)Oc3c(C)c(O)c4c(O)c(c(/C=N/N5CCN(C)CC5)c(O)c4c3C2=O)NC(=O)/C(C)=C\C=C\[C@H](C)[C@H](O)[C@@H](C)[C@@H](O)[C@@H](C)[C@H](OC(C)=O)[C@@H]1C [RIF, rifampicin] | 0.032 (≈ 0.0389 µM) | 0.5 (≈ 0.608 µM) | 0.25 (≈ 0.304 µM) |
| CC(=O)NC[C@H]1CN(c2ccc(N3CCOCC3)c(F)c2)C(=O)O1 [LZD, linezolid] | 0.125 to 0.5 (≈ 0.371 to 1.48 µM) | 0.03 (≈ 0.0889 µM) | 0.25 (≈ 0.741 µM) |
